From patent US9724416B2, “Composition for improving or promoting hair growth containing, as active ingredients, photosensitizer irradiated with light and peptide, and method using same” (GWANGJU INSTITUTE OF SCIENCE AND TECHNOLOGY, priority 2012, dated 2017) come the findings set out here.

Entries after “also recorded” stand apart in the source; their conditions may differ.

Data set [1] concerns C57BL/6N mouse. As to the kind of experiment: Hair growth promoting effects using a mouse (first test). The settings on record: for hair growth amounts compared to the control group: FIGS. 7 and 8 (day 10, day 12); for hair growth promoting effects with the naked eye compared to the untreated group: day 5 after sample treatment; for hair growth promoting effects compared to the untreated group: day 8 after sample treatment (FIG. 6B); for hair growth levels: until day 3, compared across groups incl. untreated. The class given is in vivo. Here is the method: (§1) ALA and ALA-peptide which were major test materials of the present invention were dissolved in pure water to a concentration of […] (100 ppm) to be used.
A 7-week-old C57BL/6N mouse (Jungang Lab. Animal Inc., KOR) was used for this study, and hair of the mouse's back was completely removed using a wax at the age of 49 days to 51 days at which the C57BL/6N mouse enters […] for the second time. In order to verify hair growth promoting effects of the test materials, it was treated once a day for 24 days. More particularly, ALA and the ALA-peptide were sprayed 3 times before LED radiation, and the LED treated groups were verified after being treated for 5 minutes.

Data set [2] has as its system C57BL/6N mouse. As to the kind of experiment: Hair growth promoting effects using a mouse (second test). The data set is classed as in vivo. Here is the method: A 10-fold volume of primary distilled water was put into 100 g of Cimicifuga heracleifolia, Baikl skullcap, and Lance Asiabell dry matters, which were hot water extracted for 6 hours at 100° C. and were then filtered. The filtered extracts were pulverized through freeze-dried and then stored at 4° C. until used. The pulverized natural extracts were used in a mouse experiment at a concentration of 1 mg/ml.
as §1
A 7-week-old C57BL/6N mouse was used for this study, and hair of the mouse's back was completely removed using a wax at the age of 49 days to 51 days at which the C57BL/6N mouse enters […] for the second time. In order to verify hair growth promoting effects of the test materials, it was treated once a day for 24 days. More particularly, the ALA and ALA-peptide were sprayed 3 times before LED radiation, and the LED treated groups were verified after treated for 5 minutes.

For “5-Aminolevulinic Acid (ALA)-Peptide (GHK) [ALA-peptide]”, in the data set on C57BL/6N mouse [1] (LED-Blue radiation), the “hair growth amounts compared to the control group” value is reported as “significant hair growth promoting effects”, the “hair growth promoting effects with the naked eye compared to the untreated group” value is given as “distinct differences” and the “hair growth promoting effects compared to the untreated group” value is reported as “about 7 fold”. Also, the “hair growth promoting effects through continuous treatments” value in the data set on C57BL/6N mouse [1] (LED-Red radiation compared to LED-Blue radiation, FIGS. 9 to 14 (day 14 to day 24)) is recorded as “more superior hair growth promoting effects than the LED-Blue+ALA-peptide treated group”. Further, in the data set with C57BL/6N mouse [1] (LED-Red radiation), the “hair growth amounts compared to the control group” value was “significant hair growth promoting effects; also recorded: most superior hair growth promoting effect”, the “hair growth promoting effects with the naked eye compared to the untreated group” value was “distinct differences” and the “hair growth promoting effects compared to the untreated group” value was “about 10 fold”. In the data set with C57BL/6N mouse [2] (LED-Red radiation, day 9 after sample treatment), the “hair growth promoting effects compared to the untreated group (in words)” value is recorded as “significant hair growth promoting effects”. The “hair growth amounts compared to the untreated group” value in the data set with C57BL/6N mouse [2] (LED-Red radiation, extracts 1 mg/ml) is “increasing effects in the significant hair growth amounts”. The “hair growth levels compared to untreated group” value with C57BL/6N mouse [2] (without LED radiation, FIGS. 16 to 19 (day 0 to day 7)) is recorded as “little differences in hair growth levels”.
Turning to `Cl.NCC(=O)CCC(=O)O` [ALA, 5-aminolevulinic acid, reference compound], the “hair loss phenomenon compared to other treated groups” value in the data set with C57BL/6N mouse [1] (LED-Blue radiation, day 30 of observation (FIG. 15)) is given as “considerable hair loss phenomenon”. Besides, the hair growth levels result in the data set with C57BL/6N mouse [1] (LED-Blue radiation) and in the data set on C57BL/6N mouse [1] (LED-Red radiation) was “no differences in hair growth levels” throughout.
